Assay results reported in patent US11384385B2, “Method for predicting therapeutic effects of irinotecan, and kit for same” (Yamaguchi University, priority 2017, dated 2022).
Like-named read-outs stand apart in the source and are kept apart here.

Assays:
cancer = conditions: general response rate; cited from earlier work
[1] = tested on: colorectal cancer (stage IV); assay: Therapeutic effect of irinotecan on cancer evaluated by RECIST (CR and PR = therapeutic effect), by rs1980576 genotype; type: in vivo, human; conditions: for therapeutic effect observed (CR+PR): rs1980576 wild-type homozygote (A/A)
Method: Analysis objects were 140 cases among 155 Japanese colorectal cancer (stage IV) cases who were administered with irinotecan excluding cases who were administered with a reduced amount of irinotecan, UGT1A1*6 (homo), UGT1A1*28 (homo), and their compound heterogeneous cases and determined for the therapeutic effect and 66 subpopulation cases (FOLFIRI cases with a unified regimen) among the 140 cases. FOLFIRI is one of standard treatments for colorectal cancer and using irinotecan simultaneous with treatment with a combination of fluorouracil and 1-leucovorin. The 140 cases were Japanese colorectal cancer patients treated with a regimen including irinotecan. The regimen in this Example includes combination therapy, in addition to irinotecan, with FOLFIRI using fluorouracil and 1-leucovorin, […] using capecitabine, IRIS using S-1, or an anti-EGFR antibody agent ([…], Cetuximab, or Panitumumab). Comprehensive analysis (WES analysis) of the prepared genome DNA was performed by the same method as described in WO2016/132736 (PCT/JP2016/000793). That is, three types of cases: cases (n=5) as a control group in which UGT1A genetic polymorphisms (seven positions of UGT1A1*6, *27, and *28, UGT1A7 (387T>G and 622T>C), UGT1A9*1b, and UGT1A1*60) were all homozygotes being low in side effect risk and no side effect from irinotecan were observed; cases (n=5) as a case group in which although the UGT1A genetic polymorphisms were the same as those in the control group, side effects (Grade 3, entire course) were observed; and cases (n=5) in which any of the UGT1A genetic polymorphisms was a heterozygote and a side effect was observed from the first administration of irinotecan (Grade 4), were established, and the case and control groups were analyzed. […] The genetic polymorphisms and the side effect frequency and the response rates were statistically analyzed using a Cochran-Armitage trend test. […] Accordingly, 11 single nucleotide polymorphisms in total: the above-mentioned single nucleotide polymorphisms a) to f) and single nucleotide polymorphisms g) UGT1A1*6, h) UGT1A1*60, i) UGT1A7 (387T>G), j) UGT1A7 (622T>C), and k) UGT1A9*1b known to be involved in side effects from irinotecan, were analyzed for a relationship with the therapeutic effects of irinotecan on cancer. […] CR and PR were determined to have a therapeutic effect; and SD and PD were determined to have no therapeutic effect. […] FIGS. 1 and 2 show the analysis results of 140 cases determined for therapeutic effects, and FIGS. 3 and 4 show the analysis results of 66 subpopulation cases among the 140 cases. […] In addition, in FIGS. 1 to 4, “Odds ratio” is calculated as an odds ratio of the therapeutic effects (efficacy) of irinotecan on cancer in a wild-type homozygote or a mutant-type homozygote by Fisher's exact test.

[2] = FIG. 5, Table 2 of WO2016/132736, cited from earlier work
[3] = rs1980576 mutant-type homozygote (G/G)

**Q.** Which “response rate of irinotecan generally” value (cancer) does the source give for `CCc1c2c(nc3ccc(OC(=O)N4CCC(N5CCCCC5)CC4)cc13)-c1cc3c(c(=O)n1C2)COC(=O)[C@]3(O)CC` [irinotecan, (S)-4,11-diethyl-3,4,12,14-tetrahydro-4-hydroxy-3,14-dioxo-1H-pyrano[3′,4′:6,7]indolizino[1,2-b]quinolin-9-yl ester, CPT-11,1,4′-bipiperidine-1′-carboxylic acid] here?
**A.** Its value is “about 32%”.

**Q.** What about the “possibility of a therapeutic effect of irinotecan on cancer” value ([1]; rs1980576 heterozygote (A/G)) of the same compound?
**A.** Its value is “high”.

**Q.** And the therapeutic effect [1, 3]?
**A.** The therapeutic effect was “low”.

**Q.** What about the “therapeutic effect observed (CR+PR)” value ([1]; 66 FOLFIRI cases only (FIG. 3)) of the same compound?
**A.** Its value is 43%.

**Q.** What about the “therapeutic effect observed (CR+PR)” value ([1]; 140 Japanese colorectal cancer cases, regimen including irinotecan (FIG. 1)) of the same compound?
**A.** The value was 38%.

**Q.** What about the “risk of side effects” value ([2]; rs1980576 heterozygote (A/G)) of the same compound?
**A.** The value was “low”.

**Q.** What about the “risk of side effects” value [2, 3] of the same compound?
**A.** The value was “high”.

**Q.** And the “risk of side effects” value ([2]; rs1980576 wild-type homozygote (A/A))?
**A.** Its value is “low”.
